Tests used:
Assay type in all cases: cell-based, murine
[1] = test system: nitrite production in BV-2 cells; test: LPS-induced nitrite (nitric oxide) production in BV-2 cells, Griess reagent; conditions: 100 ng/ml LPS, 18 hours
Method: Nitrite levels in the culture media were determined using Griess reagent under manufacturer's instructions (Sigma Aldrich, St. Louis, Mo.). Fresh culture media were used as blanks and the nitrite levels were determined by using a standard sodium nitrite curve.
The effect of each extract on nitric oxide production is evaluated according to the procedures illustrated as follows. Briefly, murine microglia cell line BV-2 is maintained in Dulbecco's modified Eagle's minimum essential medium (DMEM) supplemented with 10% FBS and 1% penicillin and streptomycin (Invitrogen Life Technologies, Carlsbad, Calif.) at 37° C. in a humidified atmosphere with 5% CO2 in warm air.
0.1 M cells/ml BV-2 cells are seeded in 24-well plates (0.5 ml in each well). Cells are treated with 0.05% DMSO; 0.05% DMSO and 100 ng/ml LPS; or 100 ng/ml LPS and 50 μg/ml of an LCX extract for 18 hours, respectively. The culture supernatant is collected. The nitric oxide level is measured using the Griess reagent according to standard manufacturer's instructions (Sigma Aldrich, St. Louis, Mo.), and assessed using the standard sodium nitrite curve.
The effect of senkyunolide A (Sen A) and Z-ligustilide (Z-Lig) at various concentrations on LPS-induced nitrite production is further evaluated in this Example. Briefly, 0.1 M cells/ml BV-2 cells are seeded in 24-well plates (0.5 ml in each well). Cells are treated with 0.05% DMSO; 0.05% DMSO and 100 ng/ml LPS; 50 μg/ml Sen A/Z-Lig; or 100 ng/ml LPS and Sen A/Z-Lig at a concentration of 1 μg/ml, 5 μg/ml, 10 μg/ml, 25 μg/ml, and 50 μg/ml for 18 hours, respectively. The culture supernatant is collected. The nitric oxide level is measured using the Griess reagent according to standard manufacturer's instructions (Sigma Aldrich, St. Louis, Mo.), and evaluated using the standard sodium nitrite curve.

[2] = test system: TNF-α protein production in BV-2 cells; test: LPS-induced TNF-α protein production in BV-2 cells, ELISA; conditions: 100 ng/ml LPS, 18 hours
Method: To measure the TNF-α level in cell culture supernatants, BV-2 cells were seeded at 1×10^5 cells/ml in the volume of 0.5 ml in 24-well culture plates. They were co-treated with or without 100 ng/ml LPS in the absence or presence of indicated concentrations of bioactive compounds of LCX for 18 h. In addition, PBMac cells were seeded at 1×10^6 cells/ml in the volume of 0.5 ml in 24-well plates. After incubation, the supernatants were collected and TNF-α levels were determined by ELISA according to the manufacturer's instructions (R&D Systems).
The role of senkyunolide A (Sen A) and Z-ligustilide (Z-Lig) in suppressing TNF-α production is further evaluated in this Example. Briefly, 5×10^4 cells/ml BV-2 cells are seeded in 24-well plates (0.5 ml in each well). Cells are treated with 0.05% DMSO; 0.05% DMSO and 100 ng/ml LPS; 50 μg/ml Sen A/Z-Lig; or 100 ng/ml LPS and Sen A/Z-Lig at a concentration of 1 μg/ml, 5 μg/ml, 10 μg/ml, 25 μg/ml, and 50 μg/ml for 18 hours, respectively. The culture supernatant is collected and the level of secreted TNF-α is measured by ELISA.

NF-kB p65 = test: Nuclear translocation of NF-kB p65 in LPS-stimulated BV-2 cells, Western blot; conditions: 50 μg/ml pretreatment 1 h, 100 ng/ml LPS 30 min
Method: BV-2 cells (2×10^5 cells/ml) were pretreated with either 0.05% DMSO or 50 μg/ml senkyunolide A for 1 h, followed by treatment with 100 ng/ml LPS for another 30 min. (A) Cytoplasmic proteins were extracted and analyzed by Western Blot using antibodies specific for phospho-p38, phospho-JNK, phospho-ERK 1/2 and actin. (B) Nuclear proteins were extracted and analyzed by Western Blot against NF-kB p65 and lamin B antibodies. 10^5 cells/ml BV-2 cells were first pretreated with senkyunolide A for 1 h. After induction by 100 ng/ml LPS for 30 min, the culture medium was discarded. Cytoplasmic proteins and nuclear proteins were extracted separately by buffer A and buffer C as described in our previous report^28. The cell lysates were separated by 10% SDS-polyacrylamide gel electrophoresis and transferred to a nitrocellulose membrane (Schleicher & Schuell, Germany). The cell lysates were incubated with specific antibodies (phospho-MAP kinases, Actin, NF-kB p65 and Lamin B) overnight. After three washes, the membranes were incubated with the corresponding secondary antibodies. The bands were detected using the Enhanced Chemiluminescence System (GE Healthcare, Piscataway, N.J., USA) according to the manufacturer's instructions. The NF-kB pathway plays a key role in the transcriptional regulation of inflammatory mediators. […]

In the case of `CCCC[C@H]1OC(=O)C2=C1CCC=C2` [senkyunolide A], the “reduction in nitrite production” value ([1]; 10 μg/ml) is reported as “approximately 4 fold”, the “reduction in nitrite production” value ([1]; 25 μg/ml) is reported as ~20 fold and the “effect on nitrite production” value ([1]; 50 μg/ml) is reported as “almost completely inhibits nitrite production”. The “reduction in TNF-α production” value ([2]; 10 μg/ml) was “approximately 2 fold”, the “reduction in TNF-α production” value ([2]; 25 μg/ml) was ~4 fold and the “reduction in TNF-α production” value ([2]; 50 μg/ml) was ~10 fold. The “effect on translocation of NF-kB p65 into the nucleus” value (NF-kB p65) was “did not exert an inhibitory effect”.
